In data set [1] the test system is hla promoter. Put plainly: Paper disc diffusion and lux assay (hla promoter lux reporter). Format: cell-based, S. aureus. The procedure: A single colony of bioluminescent S. aureus carrying the hla-promoter lux reporting system was resuspended in 200 μl of sterile water, diluted 1000-fold into 0.7% (w/v) BHI agar and overlaid onto BHI agar plates. 10 μl of the 50 mM analogues compounds dissolved in DMSO were impregnated to paper disc and placed on the lawn of bacteria. The plates were incubated overnight at 37° C. The luminescence was detected with Xenogen IVIS 100 in vivo imaging system (Xenogen, Alameda, Calif.).

Data set [2] deals with Vero cells. Description: Cytotoxicity assay (MTT). Format: cell-based. The conditions noted are these: for Cytotoxicity: MTT assays in Vero cells. The procedure: MTT assays are performed for selected compounds on Vero cells according to product instructions.
Data set [3] deals with hla promoter. Description: Paper disc diffusion and lux assay (hla promoter lux reporter). Format: cell-based, S. aureus. The conditions noted are these: each compound used at 25 μM. For orientation: In agar diffusion tests the substance spreads into inoculated agar from a disc or well.
Data set [4] deals with S. aureus Mu3. Put plainly: BALB/c mice infection model, organ bacterial load. The note with it: 3 days after infection.
Excerpt: (§1) 6-8 weeks old female BALB/c mice were infected with 4×10^8 CFU of S. aureus. […] 3 days after infection, the animals were euthanized; kidneys, livers and spleens were homogenized in PBS, and plated on BHI agar for quantitative bacterial culture.
The subject of data set [5] is S. aureus USA300. Put plainly: BALB/c mice infection model, organ bacterial load. The conditions noted are these: 3 days after infection.
Excerpt: as §1
Data set [6] relates to S. aureus. Description: MIC of compound 3 and analogues (Table 7, strain not given).
For data set [7], the system named is S. aureus Mu3. Description: Secondary screening of compound 13 analogues in combination with gentamicin (growth by OD 595 nm). The note with it: for activity at 5 µM / activity at 20 µM / activity at 50 µM / inhibition at 20 µM / inhibition at 50 µM: Staphylococcus aureus; for activity at 5 µM / activity at 20 µM / activity at 50 µM: MU3, 16 h, read-out: relative growth; for inhibition at 20 µM: MU3, read-out: 20 μM + 200 μg/ml Gentamicin Growth inhibition Percentage; for inhibition at 50 µM: MU3, read-out: 50 μM + 200 μg/ml Gentamicin Growth inhibition Percentage; for relative growth: relative to DMSO = 1.
Description: All screening is done in 384-well polystyrene microtiter plates (Greiner Bio-One). Overnight culture of Mu3 is washed with BHI medium 3 times, diluted and plated to give 5×10^5 CFU/mL per well. The plates are incubated at 37° C. for 16 hours and growth is monitored by optical density reading at 595 nm using an automated DTX 880 multimode detector. Screening using BHI medium is designated as the background screen. […] Sub MIC concentration of antibiotics is selected for screening. BHI containing a final concentration for gentamicin 156.25 μg/mL is used correspondingly for individual experiments. […] Screening results with various antibiotics is normalized with the background screening to calculate the percentage of growth inhibition.
Identical experimental procedures are performed as primary screening procedures, except different concentrations of selected compound are tested.
Secondary like screening was performed with different concentrations of each analogue compounds were tested with different gentamicin concentration, 50 μM, 20 μM and 5 μM compound concentration were used against, BHI containing, 0 μg/ml, 100 μg/ml and 200 μg/ml gentamicin.

The subject of data set [8] is S. aureus Mu3 strain. Description: Microdilution checkerboard assay of compound with aminoglycosides. A general note: In broth dilution the organism is exposed to a series of concentrations in liquid medium.
Description: The Checkerboard assay is performed in 96-well microtitre plates. […] The antibiotics are 2 fold serially diluted along the ordinate, the compounds are added along the abscissa to generate the checkerboard concentration gradients between the compounds and the antibiotics. Bacterial culture are topped and incubated overnight. Bacterial growth is monitored by the OD absorbance at 595 nm.
The concentration tested range was from 500M to 0.98 μM. MICs higher than 500M were not determined.
The test system of data set [9] is MRSA Mu3. Description: Minimal inhibitory concentration (MIC) test, broth micro-dilution. Format: cell-based, Staphylococcus aureus. The note with it: microbroth dilution. The procedure: Preliminary testing of the MIC value of three antibiotics (Gentamicin, Ceftriaxone, and Levofloxacin) against MRSA Mu3 was performed according to microbroth dilution methods. This was to establish the reference for the appropriate amount of antibiotics to be used for HTS for hit identification of compounds that could have synergistic activities or potentiate the antibiotic's antimicrobial effect. The MIC value of Gentamicin against MRSA Mu3 was determined to be 1000 μg/mL.

A word on the MIC: it is the least concentration at which growth counts as inhibited.

Entries after “also recorded” stand apart in the source; their conditions may differ. Read-outs that look alike come from different tables or passages of the source.

Turning to `O=C(O)CN1C(=O)/C(=C/c2ccc(OCc3ccccc3)cc2)SC1=S` [Compound 3], the “repression in hla promoter lux reporter assay” value (from here on “repression”) in [1] is reported as “significant repression”. The Cytotoxicity entry in data set [2] was “Low”. The Relative lux signal in data set [3] came out at 0.00439. In data set [4], the kidney bacterial load result is on record as “reduction; also recorded: reduce kidney bacterial load”, the liver bacterial load entry is reported as “reduction; also recorded: reduce liver bacterial load” and the spleen bacterial load entry is reported as “reduction; also recorded: reduce spleen bacterial load”. In data set [5], the liver bacterial load entry is on record as “reduction; also recorded: reduce liver bacterial load” and the spleen bacterial load result is on record as “reduction; also recorded: reduce spleen bacterial load”. Moreover, in data set [6] (Staphylococcus aureus), the MIC was 500 µM. For the same molecule, in data set [7], the activity at 5 µM was 118%, the activity at 20 µM came out at 109%, the activity at 50 µM is 88% and the inhibition at 20 µM is 60%. The inhibition at 50 µM in data set [7] worked out at 92%. In [7] ([Cpd] 5 μM, [Genta] 100 ug/ml), the relative growth was found to be 1.12. In addition, in data set [7] ([Cpd] 5 μM, [Genta] 200 ug/ml), the relative growth was 1.18. In [7] ([Cpd] 20 μM, [Genta] 100 ug/ml), the relative growth was 0.94. In addition, the relative growth in data set [7] ([Cpd] 20 μM, [Genta] 200 ug/ml) is listed as 0.4. In addition, the relative growth entry in data set [7] ([Cpd] 50 μM, [Genta] 100 ug/ml) was “*0.09”. The relative growth result in data set [7] ([Cpd] 50 μM, [Genta] 200 ug/ml) is recorded as “*0.08”.

Consider `CCOc1cc(/C=C2\SC(=S)N(CC(=O)O)C2=O)ccc1OCc1ccc(Cl)cc1` [Compound 20], for which, in data set [2], the “cytotoxicity from Vero cell MTT assays” value is listed as “less cytotoxicity”. The Cytotoxicity result in data set [2] is “Medium/Low”. Besides, the “Combinatory effect with gentamicin” value in data set [8] (checkerboard) is “Potentiating”. Moreover, the “combined effect with gentamicin in inhibiting growth” value in data set [8] is reported as “promising potentiating effect”; in [8] (listed as compound 20), “potentiating effect”. Moreover, in data set [7], the activity at 5 µM is 101%. Besides, the activity at 20 µM in data set [7] was determined as 78%. Further, the activity at 50 µM in data set [7] was 91%. Moreover, the inhibition at 20 µM in data set [7] came to 91%. Also, the inhibition at 50 µM in data set [7] is 86%. For the same molecule, the relative growth in data set [7] ([Cpd] 5 μM, [Genta] 100 ug/ml) is given as 0.96; in [7] ([Cpd] 5 μM, [Genta] 200 ug/ml) it was 0.88; in [7] ([Cpd] 20 μM, [Genta] 100 ug/ml), “*0.14”; in [7] ([Cpd] 20 μM, [Genta] 200 ug/ml), “*0.09”; in [7] ([Cpd] 50 μM, [Genta] 100 ug/ml), “*0.17”; in [7] ([Cpd] 50 μM, [Genta] 200 ug/ml) it was “*0.14”.

On to `CCCOc1ccc(/C=C2\SC(=S)N(CC(=O)O)C2=O)cc1` [Compound 48], for which, in [1], the “repression” value is “significant repression”. The activity at 5 µM in [7] amounted to 98%. For the same molecule, the activity at 20 µM in [7] was 95%. Moreover, in data set [7], the activity at 50 µM was determined as 87%. Moreover, the inhibition at 20 µM in data set [7] was 36%. In data set [7], the inhibition at 50 µM turned out to be 69%. Further, the relative growth in [7] ([Cpd] 5 μM, [Genta] 100 ug/ml) was 0.97; in data set [7] ([Cpd] 5 μM, [Genta] 200 ug/ml) it was 0.96; in [7] ([Cpd] 20 μM, [Genta] 100 ug/ml) it was 0.97; in data set [7] ([Cpd] 20 μM, [Genta] 200 ug/ml) it was 0.64; in data set [7] ([Cpd] 50 μM, [Genta] 100 ug/ml), 0.8; in data set [7] ([Cpd] 50 μM, [Genta] 200 ug/ml), “*0.31”.

Turning to `COc1ccc(/C=C2/SC(=S)N(CCC(N)=O)C2=O)cc1` [Compound 87], the “repression” value in data set [1] is reported as “hla promoter lux repression”. In addition, the Relative lux signal in data set [3] came out at 0.2657. In addition, the MIC in data set [6] came to 500 µM.

With Gentamicin, in data set [9], the “MIC value against MRSA Mu3” value was 1000 µg/mL.

For the origin of these results see patent US20190307729A1, “ANTIMICROBIAL COMPOUNDS AND METHODS FOR USE THEREOF” (VERSITECH LIMITED, priority 2016, published 2019).
